Data reported in patent publication US7339042B2, “Gene delivery to tumors” (University of Florida Research Foundation, Inc., priority 2003, dated 2008).
Entries after “also recorded” stand apart in the source; their conditions may differ. No end group written: not given here.

Experiments:
[1] = tested on: endothelial cells and smooth muscle cells of rat cerebral arteries; assay: Uptake of fluorescent peptides by pressure-mounted rat cerebral arteries; format: cell-based
Experimental: Tat-P16 peptides were prepared and labeled with fluorescein for use in uptake studies using intact blood vessels isolated from rat brain. Blood vessels were dissected from rat brain and stabilized in an isolated perfusion system in which vessels were attached on either end to catheters and placed under physiological pressure. Following a 10 minute perfusion of the isolated vessels with flurorescent Tat-P16 peptide (1 μM), vessels were examined for uptake of the peptides. […] Within the endothelial cells, the labeled peptides were seen to be localized to the cell nuclei, further confirming uptake of the peptides by the cells.
The peptides are fairly labile in the media and approximately 50% are degraded upon incubation at 37° C. in complete media (qualitative analysis by PAGE) after 1 hour. […] Uptake of these peptides and cell killing activity was tested in a 3 dimensional organ culture using rat cerebral arteries cultured under physiological pressure and flow. A segment of the rat cerebral artery is surgically removed and placed in ringer's solution. Using a surgical stereoscope, the blood vessel is tied at either end to two cannulas on a teflon stage. Ringer's solution is perfused through the lumen of the vessel at a constant rate that maintains physiologic hydrostatic pressure. The fluorescent peptide was introduced intraluminally by perfusing a 1 μM solution of peptide through the lumen over a 10 minute period.
Rats were anesthetized by intraperitoneal injection of pentobarbital sodium (160 mg/kg) and killed by decapitation. The brain was removed and placed in an ice-cold oxygenated physiological cerebrospinal fluid (PCSF, see below for composition). Cerebellar arteries were isolated and mounted in an arteriograph as described previously (Knot and Nelson 1998). The arteriograph was placed on an inverted microscope and the artery was visualized with a monochrome CCD camera coupled to a calibrated video caliper system to measure arterial diameter. The arteries were slowly pressurized to 70 mmHg under no flow conditions using a pressure servo-null system (Living Systems Inc., Burlington Vt.), and warmed to 37° C. while being continuously superfused (5 ml/min) with PCSF bubbled with 21% O2, 5% CO2, 74% N2 (pH 7.35-7.40 in the bath). […] Myogenic tone is calculated by the following equation: Myogenic tone=(Dp−Da)/Dp×100
(§1) In some experiments, the arterial segments were denuded of endothelium by passing an air bubble through the lumen, thus exposing the smooth muscle cells to luminally administered peptides. Constriction to pressure and 60 mM KCl and dilation of arteries with myogenic tone to 16 mM KCl were used as benchmarks of functional arteries. Peptide containing PCSF was perfused intraluminally at an inlet pressure of 70 mmHg with the outlet open, for 20 min and then perfused with normal PCSF. This procedure ensures a 20 min of exposure of the arteries to the peptide.

[2] = tested on: two human glioblastoma cell lines and a rat glioma cell line; assay: Fluorescein peptide uptake, fluorescence microscopy, three glioma lines; format: cell-based; details: 1 μM peptide, 10^6 cells, all three cell types
Experimental: Synthetic peptides labeled with an N-terminal fluorescein were synthesized to test the ability of a shuttle domain to enter brain tumor and endothelial cells. The amino acid sequences for the shuttle domain was derived from HIV Tat amino acid 47 to 56 ([…] SEQ ID NO:23)(Robert-Guroff et al., J. Virol. 64:3391-3398, 1990) to which AGGG was added to the N-terminus, and the antennapedia homeodomain from drosophila (ANT) ([…] SEQ ID NO:24) (Astriab-Fisher et al., Pharm. Res., 19:744-754, 2002). A synthetic peptide (PTD-5) reported to have similar properties as Tat and ANT was also tested (Mai J. C. et al, Cancer Res. 2001; 61: 7709-7712.). Uptake was tested in two human glioblastoma cell lines and a rat glioma cell line, the latter being used for the rat brain tumor model. A 1 μM concentration of each peptide was added to 10^6 cells in a 6 well plate. […] The Tat and ANT peptides were doubled in length by the addition of […] (SEQ ID NO: 25), amino acids 42 to 55 from a human cyclin-dependent kinase inhibitor 2A (melanoma, p16, inhibits CDK4) (CDKI), transcript variant 4, mRNA (accession no. NM_058195). This domain binds MDM2 and inhibit ubiquination of P53, a tumor suppressor protein. […] Only the combination of Tat-CDKI was toxic to the cells, 65% killing for T98G and 61% killing for RG2 cells. […] Similar results were obtained with A172 cells. […]

[3] = tested on: endothelial cells and smooth muscle cells of rat cerebral arteries; assay: Uptake of fluorescent peptides by pressure-mounted rat cerebral arteries; format: cell-based; details: extraluminal addition
[4] = tested on: T98G cells, RG2 cells and A172 cells; assay: Cell viability assay of chimeric peptides in three cell types; format: cell-based, human and rat; details: fixed concentration, 30-minute incubation
Experimental: Synthetic peptides labeled with an N-terminal fluorescein were synthesized to test the ability of a shuttle domain to enter brain tumor and endothelial cells. The amino acid sequences for the shuttle domain was derived from HIV Tat amino acid 47 to 56 ([…] SEQ ID NO:23)(Robert-Guroff et al., J. Virol. 64:3391-3398, 1990) to which AGGG was added to the N-terminus, and the antennapedia homeodomain from drosophila (ANT) ([…] SEQ ID NO:24) (Astriab-Fisher et al., Pharm. Res., 19:744-754, 2002). A synthetic peptide (PTD-5) reported to have similar properties as Tat and ANT was also tested (Mai J. C. et al, Cancer Res. 2001; 61: 7709-7712.). Uptake was tested in two human glioblastoma cell lines and a rat glioma cell line, the latter being used for the rat brain tumor model. A 1 μM concentration of each peptide was added to 10^6 cells in a 6 well plate. […] The Tat and ANT peptides were doubled in length by the addition of […] (SEQ ID NO: 25), amino acids 42 to 55 from a human cyclin-dependent kinase inhibitor 2A (melanoma, p16, inhibits CDK4) (CDKI), transcript variant 4, mRNA (accession no. NM_058195). […]
The cytotoxicity of the chimeric peptides was characterized using a cell viability assay. […] After a 30-minute incubation, cells were removed from the plate, stained with propidium iodide and the % positive cells were determined by FACS (fluorescent activated cell scanning). […]

[5] = tested on: A172 cells; assay: Fluorescein peptide uptake by A172 cells, fluorescence microscopy; format: cell-based, human
Experimental: (§2) For fluorescent microscopy studies cells were plated on 2 chamber cover slips at a density of 1×10^4 cells/chamber. Cells were incubated with […] peptide for 30 minutes in completed media, washed with PBS 3× and imaged using a Nikon Axiophot inverted fluorescent microscope. Images were taken using a Spot CCD camera.
Synthetic peptides derived from HIV Tat (Tat) and the Drosophila antennaepedia homeodomain (ANT) were tested for cell uptake by A172 cells (human glioblastomas). The peptides were labeled at the N-terminus with fluorescein. Cells were incubated with 30 uM peptide at 37° C. in serum containing media. Fluorescent micrographs were taken after 1 hr incubation at 37° C. […] The size of the peptide was increased by added an Mdm-2 binding domain derived from P14ARF. This domain was added to the C-terminus of the Tat and ANT peptides. The P14ARF domain was also placed at the N-terminus followed by the Tat peptide. All the peptides were labeled at the N-terminus with fluorescein and cell incubations similar to the Tat and ANT peptides were tested for cellular uptake. […] Both the bright field and fluorescent micrographs show altered cell morphology.

[6] = tested on: RG2 cells; assay: Fluorescein peptide uptake by RG2 cells, fluorescence microscopy; format: cell-based, rat
Experimental: as §2
Similar observations were obtained for all the peptides in another human glioblastoma cell line, T98G.

[7] = target: Flk-1 (Homo sapiens, UniProt P35968); details: cited from earlier work
[8] = tested on: rat cerebral arteries; assay: Vasodilation and vasoconstriction response of rat cerebral arteries before and after peptide; format: cell-based; details: after vs before intraluminal peptide
Experimental: The blood vessels were put in culture described above and perfused with buffer of the same composition as cerebrospinal fluid. Vessel diameter was measured before and after administration of each reagent. 3 μM of each peptide was perfused through for 10 minutes followed by a 10 minute wash through. Vasoconstriction and vasodilation were determined for each vessel before peptide was applied. Perfusion was continued until the vessels relaxed to their original diamter (approximately 30 minutes). The vasoconstriction and vasodilation reponse was remeasured after the 10 minute wash through. The 60 mM KCl and 16 mM KCl conditions are […], respectively. Histamine and Bradykinin are endothelial cell vasodilators.
as §1
(§3) Effect of peptide on endothelial and smooth muscle function was evaluated by histamine (0.3 and 1 μM) and bradykinin (0.5 μM) (endothelium-dependent vasodilators) and 16 and 60 mM KCl (results in dilation and constriction of arteries by hyperpolarizing and depolarizing smooth muscle, respectively). These drug solutions were added to the superfusate and applied to the arteries extraluminally for 10 to 15 min before and after intraluminal perfusion with peptides. Effects of these agents were expressed as percent change in myogenic tone (decrease for dilators and increase for constrictors). Experiments were concluded by exposing the arteries to calcium free PCSF to obtain the passive diameter. Cell viability was determined by adding H3334 (Hoechst viability stain, final concentration 1 μM) and propidium iodide (final concentration 1 μM) to the arteriograph after the peptide incubation. Fluorescent micrographs were taken of the vessels after incubation with peptides and following addition of the vital stains using Till Photonics imaging system (Martinsried, Germany).

[9] = tested on: rat cerebral arteries; assay: Cell viability staining of arteries (propidium iodide, H3334) after peptide; format: cell-based; details: after treatment with peptide
Experimental: No PI statined smooth muscle cell nuclei were observed.
as §3

[10] = tested on: RG2 cells; assay: Fusion peptide cell killing, propidium iodide/FACS viability, RG2 cells; format: cell-based, rat
Experimental: (§4) Other experiments were performed using two glioma cell lines, i.e., T98G and RG2. 1×10^6 cells per well were incubated in 6-well plates with peptides in complete media for 1 hr. Cells were removed from the plate using a cell stripper and the percentage of viable cells was determined by staining with propidium iodide and analyzing by fluorescence activated cell sorting (FACS).
There are 4 conserved amino acid differences between the rat and human CDKI sequence. Both sequences were attached to Tat and tested for cell killing activity in the rat glioma RG2 cells. Also the effect of orientation of the Tat and CDKI domains were tested. RG2 cells were plated on 6 well plates at approximately 70% confluency. Each of the peptides was added to the wells with increasing concentration. After 1 hr, cells were removed from the plates, washed 2× with PBS, stained with propidium iodide and analyzed by FACS for viable cells.
(§5) Cell viability studies were performed by plating the cells under the same conditions as the uptake studies. Cells were incubated with fluorescent peptides for 1 hr at 37° C. The cells were removed from the plate using cell striper. They were labeled with propidium iodide and fluorescein-AM. Percent PI positive cells were determined by FACS.
The cytotoxicity of the chimeric peptides was characterized using a cell viability assay. Peptides were added to cells at a fixed concentration. After a 30-minute incubation, cells were removed from the plate, stained with propidium iodide and the % positive cells were determined by FACS (fluorescent activated cell scanning). The test conditions were Tat, ANT, Tat-P14ARF, ANT-P14ARF and P14ARF. T98G cells were tested along with RG2 cells and A172 cells.

[11] = tested on: T98G cells; assay: Fusion peptide cell killing, propidium iodide/FACS viability, T98G cells; format: cell-based, human; details: 10 μM peptide, 1 hr
Experimental: as §4, §5

[12] = tested on: HIV; details: cited from earlier work
[13] = tested on: HUVEC attachment to vitronectin coated plates; details: read-out: IC50 for inhibiting HUVEC attachment to vitronectin coated plates; cited from earlier work
[14] = intraluminal perfusion of fluorescent peptide

Chain of Flk-1 (P35968 20-1356, species assumed): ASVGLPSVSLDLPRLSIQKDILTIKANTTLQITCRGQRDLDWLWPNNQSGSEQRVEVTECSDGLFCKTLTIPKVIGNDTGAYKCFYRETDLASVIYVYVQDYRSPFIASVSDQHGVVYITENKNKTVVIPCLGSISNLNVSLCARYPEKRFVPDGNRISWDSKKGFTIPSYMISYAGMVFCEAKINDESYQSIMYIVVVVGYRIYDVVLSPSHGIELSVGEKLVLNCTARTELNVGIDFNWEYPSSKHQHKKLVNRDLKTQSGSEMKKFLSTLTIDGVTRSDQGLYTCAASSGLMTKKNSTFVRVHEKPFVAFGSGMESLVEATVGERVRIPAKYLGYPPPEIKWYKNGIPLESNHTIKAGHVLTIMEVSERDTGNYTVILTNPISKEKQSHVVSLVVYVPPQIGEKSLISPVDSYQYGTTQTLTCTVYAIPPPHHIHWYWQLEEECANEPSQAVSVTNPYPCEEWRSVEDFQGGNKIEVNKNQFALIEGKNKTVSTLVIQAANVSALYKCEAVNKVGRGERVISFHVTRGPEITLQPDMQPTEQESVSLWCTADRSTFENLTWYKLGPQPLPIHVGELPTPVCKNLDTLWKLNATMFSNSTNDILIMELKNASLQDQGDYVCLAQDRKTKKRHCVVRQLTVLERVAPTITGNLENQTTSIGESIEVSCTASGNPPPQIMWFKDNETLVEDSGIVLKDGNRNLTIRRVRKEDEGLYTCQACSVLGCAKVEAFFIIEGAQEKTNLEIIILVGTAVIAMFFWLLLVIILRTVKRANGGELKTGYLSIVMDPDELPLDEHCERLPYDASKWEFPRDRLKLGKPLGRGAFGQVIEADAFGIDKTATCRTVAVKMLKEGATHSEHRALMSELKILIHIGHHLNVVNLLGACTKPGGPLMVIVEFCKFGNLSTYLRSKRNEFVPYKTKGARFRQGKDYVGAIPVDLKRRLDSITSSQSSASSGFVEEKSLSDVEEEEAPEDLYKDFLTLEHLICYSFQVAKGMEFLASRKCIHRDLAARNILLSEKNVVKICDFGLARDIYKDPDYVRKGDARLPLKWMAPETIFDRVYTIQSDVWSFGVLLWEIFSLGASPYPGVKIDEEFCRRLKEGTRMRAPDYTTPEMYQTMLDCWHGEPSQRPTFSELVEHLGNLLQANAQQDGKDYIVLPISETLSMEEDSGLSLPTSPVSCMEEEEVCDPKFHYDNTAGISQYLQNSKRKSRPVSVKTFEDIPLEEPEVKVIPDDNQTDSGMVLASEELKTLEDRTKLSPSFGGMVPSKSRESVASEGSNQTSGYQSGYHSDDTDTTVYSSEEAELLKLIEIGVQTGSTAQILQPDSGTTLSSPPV

Q: For “RQIKIWFQNRRMKWKK [ANT, membrane permeability domain alone, control peptide]”, which “labeling/uptake by endothelial cells” value [1, 14] is on record?
A: restriction of labeling to the endothelial cells; also recorded: cytoplasmic staining of the endothelial cells

Q: What about the “labeling/uptake by smooth muscle cells” value [1, 14] of the same substance?
A: did not label the smooth muscle cells

Q: And the “fluorescence labeling of cells (uptake)” value [2]?
A: stained the cytoplasm

Q: What about the “labeling of smooth muscle cells” value [3] of the same substance?
A: able to label the smooth muscle cells

Q: And the cells killed [4]?
A: No impact on cell viability

Q: What about the “fluorescent intensity (degree of cell uptake)” value ([5]; 30 uM peptide, 1 hr, 37° C.) of the same substance?
A: greater for the ANT peptide than the Tat peptide

Q: For “RQIKIWFQNRRMKWKK-MVRRFLVTLRIRRA [ANT-P14ARF]”, which “staining pattern (cell uptake)” value [6] is on record?
A: intracellular punctate staining

Q: Which IC50 [7] does the source give for HTMYYHHYQHHL [Flk-1 binding peptide] here?
A: ~100 µM

Q: With “AGGGYGRKKRRQRRRMGRRFVVTVRIRRT [Tat-rat P14ARF]” as the substance, how does the “morphology of the endothelial cells” value ([1]; after intraluminal exposure) read?
A: morphology of the endothelial cells was altered

Q: What about the “labeling/uptake by endothelial cells” value [1, 14] of the same substance?
A: restriction of labeling to the endothelial cells

Q: And the “endothelium-dependent dilation to histamine and bradykinin” value [8]?
A: inhibition of vasodilation

Q: What about the “smooth muscle response to 60 and 16 mM KCl” value [8] of the same substance?
A: no effect

Q: And the “propidium iodide staining of blood vessels” value [9]?
A: only the endothelial cells were affected

Q: With MVRRFLVTLRIRRA [P14ARF] as the substance, how does the “% killing (toxicity)” value ([10]; 10 μM peptide, 1 hr) read?
A: 22%

Q: And the “reduction in cell viability” value ([10]; 30-minute incubation)?
A: 22%

Q: And the “% killing (toxicity)” value [11]?
A: no toxicity

Q: And the “endothelium-dependent dilation to histamine and bradykinin” value [8]?
A: responsive to all stimuli

Q: And the “smooth muscle response to 60 and 16 mM KCl” value [8]?
A: responsive to all stimuli

Q: For RRNalCYCitKdEPYRCitCR [CXCR4 peptide], which “IC50 for inhibiting HIV” value [12] is on record?
A: in the nM range

Q: With “MVRRFLVTLRIRRAAGGGYGRKKRRQRRR [P14ARF-Tat]” as the substance, how does the IC50 ([10]; dose response 1 μM to 10 μM) read?
A: 3 µM

Q: And the cell density [6]?
A: reduced cell density compared to TatP14ARF

Q: And the “staining pattern (cell uptake)” value [6]?
A: nuclear staining

Q: And the “staining pattern (cell uptake)” value ([5]; 30 uM peptide, 1 hr, 37° C., serum containing media)?
A: nuclear staining

Q: And the cell density ([5]; A172 cells, 1-hour incubation)?
A: reduced cell density

Q: For “CDMRGDMFC [αvβ3 integrin binding peptide]”, which IC50 [13] is on record?
A: 10 µM
